In publication PMC9959676 (Molecules, 2023):

Key:
[1] = DPPH free radical scavenging assay; conditions: 1.0 mL sample 0.5 mg/mL + 2 mL DPPH 0.2 mg/mL, 30 min, 517 nm
Procedure: The DPPH assay was carried out to estimate the antioxidant potential among all the compounds [29]. Then, 2 mL (0.2 mg/mL in methyl alcohol) of DPPH was mixed with 1.0 mL (0.5 mg/mL in methyl alcohol) of the sample solution in a test tube. All the reaction tubes were covered with aluminum foil and kept aside for 30 min to complete the reaction. The activity was carried out in a dark room. […] A UV-visible spectrophotometer was employed to observe a reduction in the concentration of free radicals at 517 nm. The absorbance of the control (1.0 mL methanol + 2 mL DPPH solution) was also measured. All samples were evaluated in a triplicate manner, and the mean results were recorded. The standard antioxidant (ascorbic acid) was evaluated and set as a reference/standard. The percentage of inhibition (%) was calculated using the following formula in terms of scavenging activity(S):S (%) = [(Ab − Aa)/Ab] × 100(1) where Ab = Absorbance of control; and Aa = Absorbance of the test sample

urease = urease (Canavalia ensiformis, UniProt P07374); assay: biochemical; type: biochemical; conditions: urease, pH 7.0, 37 °C; read-out: IC50 ± SEM
Chain of urease (P07374 whole entry, looked up): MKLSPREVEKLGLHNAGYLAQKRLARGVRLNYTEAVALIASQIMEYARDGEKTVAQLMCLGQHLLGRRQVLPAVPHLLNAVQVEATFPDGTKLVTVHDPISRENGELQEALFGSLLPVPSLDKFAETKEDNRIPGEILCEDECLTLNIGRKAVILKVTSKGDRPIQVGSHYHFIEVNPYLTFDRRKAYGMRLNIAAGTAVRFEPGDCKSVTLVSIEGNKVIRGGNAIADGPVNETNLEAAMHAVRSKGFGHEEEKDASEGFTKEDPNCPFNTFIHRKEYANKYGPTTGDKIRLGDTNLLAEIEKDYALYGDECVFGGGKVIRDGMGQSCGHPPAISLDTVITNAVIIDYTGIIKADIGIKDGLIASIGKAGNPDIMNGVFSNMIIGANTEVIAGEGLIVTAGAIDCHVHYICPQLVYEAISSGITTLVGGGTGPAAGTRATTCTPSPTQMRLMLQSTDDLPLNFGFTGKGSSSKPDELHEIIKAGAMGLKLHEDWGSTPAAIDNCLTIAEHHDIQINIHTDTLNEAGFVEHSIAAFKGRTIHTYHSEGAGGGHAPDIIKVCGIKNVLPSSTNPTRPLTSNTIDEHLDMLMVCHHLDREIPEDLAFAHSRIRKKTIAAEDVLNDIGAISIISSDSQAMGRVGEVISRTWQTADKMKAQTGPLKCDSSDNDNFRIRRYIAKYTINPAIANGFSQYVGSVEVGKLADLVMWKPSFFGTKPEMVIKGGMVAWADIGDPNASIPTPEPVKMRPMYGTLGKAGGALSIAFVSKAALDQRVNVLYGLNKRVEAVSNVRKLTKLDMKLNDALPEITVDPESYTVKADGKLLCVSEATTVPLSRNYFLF
Procedure: The activity performed was an improved procedure of the Berthelot assay. […] For 5 min, the mixture was incubated at 37 °C. Each well in a 96-well plate received 40 µL of urea stock solution (20 mM); incubated for 10 min at 37 °C. Afterwards, 115 µL phenol hypochlorite (45 µL phenol + 70 µL alkali) per well was added. Furthermore, all the contents were incubated for 10 min at 37 °C. Absorbance at 625 nm was measured. Using the provided formula, the % of enzyme-inhibition and IC-50 values were computed Inhibition (%age) = [Control − test/100(control)] where Control = [Total enzyme activity minus inhibitor]. The test is the test compounds’ activity

conscious rats = assay: Antihypertensive effect, systolic blood pressure by tail-cuff method in conscious rats; type: in vivo, Wistar rats; conditions: 80 mg/kg intraperitoneally, n = 5, Control 108.28 ± 6.87, DMSO 81.10 ± 3.21
Procedure: (§1) Cervical disruption was used to eliminate male Wistar rats weighing 200 g and 300 g. The thoracic aorta segments (3 mm to 5 mm) were slightly pressed and […]. The tissues were placed in an organ bath filled with 10 mL of Krebs-Henseleit solution and kept at 37 °C. Then 95% oxygen and 5% carbon dioxide were passed through the above-mentioned solution. To record organ responses to phenylephrine, (10^−6 M) (Sigma, St. Louis, MO, USA) simulated contractions; isometric transducers and Gemini recorders (Ugo Basile, Varese, Italy) were assembled. Aortic rings were recon traced with phenylephrine (10^−6 M) and subjected to acetylcholine (10^−6 M) for recording endothelium-dependent relaxations (EDR). All synthesized compounds along with the standard (valsartan) were mixed in DMSO; whereas synthesized derivatives of concentration 10^−4 M were added in an organ bath. In conscious rats, systolic blood pressure was recorded by applying the tail-cuff method. Wistar rats of 200 g to 250 g weight were selected and divided into groups of five individuals. The chemicals were injected intraperitoneally at a dosage of 80 mg/kg body weight. The tail-cuff and a piezoelectric pulse sensor were coupled to a blood pressure analyzer and were positioned at the base of the tail (May 9610, Ankara, Turkey).
(§2) All results were presented as the mean of SEM. (n = 5) and test compounds were employed for statistical significance determination.

Bacillus pumilus = assay: Antibacterial agar-well diffusion; type: cell-based; conditions: sample 100 mg/5 mL in DMSO; ceftriaxone sodium 20 mg/10 mL; 37 °C, 24 h; 6 mm wells
Procedure: (§3) After sterilizing the Mueller Hinton agar medium on plates in an autoclave and allowing it to cool to roughly 45 °C, a 100 µL standard inoculum was aseptically mixed, chilled till 37 °C, and 6 mm wells were formed in the inoculated plates. The volume of 100 μL (100 mg/5 mL in DMSO), ceftriaxone sodium (20 mg/10 mL in DMSO) as a positive control, and pure DMSO as a negative control; 30 μL of the sample solution was incorporated into these wells. These primed plates were incubated at 37 °C for 24 h prior to record inhibitory zones in millimeters.

Escherichia coli = assay: Antibacterial agar-well diffusion; type: cell-based; conditions: sample 100 mg/5 mL in DMSO; ceftriaxone sodium 20 mg/10 mL; 37 °C, 24 h; 6 mm wells
Procedure: as §3

Pseudomonas aeruginosa = assay: Antibacterial agar-well diffusion; type: cell-based; conditions: sample 100 mg/5 mL in DMSO; ceftriaxone sodium 20 mg/10 mL; 37 °C, 24 h; 6 mm wells
Procedure: as §3

Staphylococcus aureus = assay: Antibacterial agar-well diffusion; type: cell-based; conditions: sample 100 mg/5 mL in DMSO; ceftriaxone sodium 20 mg/10 mL; 37 °C, 24 h; 6 mm wells
Procedure: as §3

thoracic aorta segments = assay: Inhibition of phenylephrine-induced contraction on isolated aorta rings; design: species or system male Wistar rats; conditions: compounds 10^−4 M in organ bath, phenylephrine 10^−6 M, n = 5
Procedure: as §1, §2

Row | Compound | %Age Inhibition ± SEM [1] | IC50 (urease) | Mean of Systolic Blood Pressure ± SEM (conscious rats) | Zone of Inhibition Gram +ve Bacteria B.pumilus Mean ± SEM (Bacillus pumilus) | Zone of Inhibition Gram -Ve Bacteria E. coli Mean ± SEM (Escherichia coli) | Zone of Inhibition Gram -Ve Bacteria P. aeruginosa Mean ± SEM (Pseudomonas aeruginosa) | Zone of Inhibition Gram +ve Bacteria S. aureus Mean ± SEM (Staphylococcus aureus) | %ge inh. of Phenylephrine Cont. (±SEM) (thoracic aorta segments)
1 | CCCCC(=O)N(Cc1ccc(-c2ccccc2-c2nn[nH]n2)cc1)C(C(=O)OC(C(=O)c1ccccc1)c1ccccc1)C(C)C (stereo not shown) [AV1, 2-oxo-1,2-diphenylethyl 2-(N-((2′-(2H-tetrazol-5yl)-[1,1′-biphenyl]-4-yl)methyl)pentanamido)-3methyl butanoate] | 73.9 ± 0.49% | 2560 ± 320 nM | 81.78 ± 3.87 | 10.33 ± 0.40 millimeters | 11.06 ± 0.55 millimeters | 10.36 ± 0.28 millimeters | 10.83 ± 0.31 millimeters | 67.3 ± 4.7%
2 | CCCCC(=O)N(Cc1ccc(-c2ccccc2-c2nn[nH]n2)cc1)C(C(=O)Oc1ccc2ccccc2c1)C(C)C (stereo not shown) [AV10, naphthalen-2-yl 2-(N-((2′-(2H-tetrazol-5-yl)-[1,1′-biphenyl]-4 yl)methyl)pentanamido)-3methyl butanoate] | 94.4 ± 0.52% | 2050 ± 1050 nM | 75.82 ± 4.12 | 10.30 ± 0.21 millimeters | 10.40 ± 0.56 millimeters | 12.63 ± 0.63 millimeters | 12.13 ± 0.37 millimeters | 69.8 ± 6.7%
